Reference: the NIST ThermoML archive (doi:10.1021/je200851a)
± gives the expanded uncertainty stated by the source.

Test: excess molar enthalpy (molar enthalpy of mixing); xn = mol fraction of the nth substance listed
Details: 298.15 K, 101 kPa, Liquid, Calvet calorimetry

CCCCCCCCC [nonane] + CCO
excess molar enthalpy (x2 = 0.0507): 0.087 ± 0.00191 kcal/mol | excess molar enthalpy (x2 = 0.1378): 0.132 ± 0.00287 kcal/mol | excess molar enthalpy (x2 = 0.2453): 0.156 ± 0.00335 kcal/mol | excess molar enthalpy (x2 = 0.4164): 0.168 ± 0.00359 kcal/mol | excess molar enthalpy (x2 = 0.5022): 0.162 ± 0.00359 kcal/mol | excess molar enthalpy (x2 = 0.586): 0.156 ± 0.00335 kcal/mol | excess molar enthalpy (x2 = 0.6518): 0.151 ± 0.00335 kcal/mol | excess molar enthalpy (x2 = 0.6895): 0.143 ± 0.00311 kcal/mol | excess molar enthalpy (x2 = 0.749): 0.13 ± 0.00287 kcal/mol | excess molar enthalpy (x2 = 0.7877): 0.12 ± 0.00263 kcal/mol | excess molar enthalpy (x2 = 0.8433): 0.1 ± 0.00215 kcal/mol | excess molar enthalpy (x2 = 0.8715): 0.0899 ± 0.00191 kcal/mol | excess molar enthalpy (x2 = 0.9065): 0.0715 ± 0.00167 kcal/mol | excess molar enthalpy (x2 = 0.9296): 0.0574 ± 0.0012 kcal/mol | excess molar enthalpy (x2 = 0.9562): 0.0387 ± 0.000956 kcal/mol
